Results from the supplement of paper PMC9663587.

Assays:
[1] = compound: CCN1CCN(Cc2ccc(Nc3ncc(F)c(-c4cc(F)c5nc(C)n(C(C)C)c5c4)n3)nc2)CC1; test: increase in dead-cell fraction, 72 h; higher = more death;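 further: breast cancer cell lines in 384-well plates, stained with Hoechst plus LIVE/DEAD far red dye and imaged, cells above an LDR intensity threshold counted dead, Hoechst-negative corpses included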
[2] = compound: T1, CN1CC[C@H](c2c(O)cc(O)c3c(=O)cc(-c4ccccc4Cl)oc23)[C@H](O)C1 [Flavopiridol]; test: as above
[3] = compound: C=CC(=O)Nc1ccc(C(=O)Nc2[nH]nc3c2CN(C(=O)N[C@H](CN(C)C)c2ccccc2)C3(C)C)cc1 [YKL-5-124]; test: GR value, 72 h; higher = faster growth (1 = untreated, <0 = killing);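 further: breast cancer and non-malignant breast epithelial lines, nine half-log doses, viable cells counted by Hoechst and LIVE/DEAD dye imaging versus time-zero plates and DMSO controls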
[4] = compound: CC(=O)c1c(C)c2cnc(Nc3ccc(N4CCN(CCOCCOCCOCCNC(=O)COc5cccc6c5C(=O)N(C5CCC(=O)NC5=O)C6=O)CC4)cn3)nc2n(C2CCCC2)c1=O [BSJ-03-123]; test: as above
[5] = compound: CC(=O)c1c(C)c2cnc(Nc3ccc(N4CCNCC4)cn3)nc2n(C2CCCC2)c1=O; test: as above
[6] = compound: CCN1CCN(Cc2ccc(Nc3ncc(F)c(-c4cc(F)c5nc(C)n(C(C)C)c5c4)n3)nc2)CC1; test: as above
[7] = compound: CCOc1cc2ncc(C#N)c(Nc3ccc(OCc4ccccn4)c(Cl)c3)c2cc1NC(=O)/C=C/CN(C)C [Neratinib/HKI272]; test: as above
[8] = compound: CCc1cnn2c(NCc3ccc[n+]([O-])c3)cc(N3CCCC[C@H]3CCO)nc12; test: as above
[9] = compound: CN(C)C(=O)c1cc2cnc(Nc3ccc(N4CCNCC4)cn3)nc2n1C1CCCC1 [LEE011/Ribociclib]; test: as above
[10] = compound: CN(C)C/C=C/C(=O)Nc1ccc(C(=O)N2CCC[C@@H](Nc3ncc(Cl)c(-c4c[nH]c5ccccc45)n3)C2)cc1 [THZ531]; test: as above
[11] = compound: CN(C)C/C=C/C(=O)Nc1ccc(C(=O)Nc2cccc(Nc3ncc(Cl)c(-c4c[nH]c5ccccc45)n3)c2)cc1 [THZ1]; test: as above
[12] = compound: T1, Flavopiridol; test: as above

Cell Line: HS578T
- increase in dead-cell fraction ([1]; 0.001 µM): 0.0038
- increase in dead-cell fraction ([1]; 0.003162 µM): 0.0096
- increase in dead-cell fraction ([1]; 0.01 µM): 0.0242
- increase in dead-cell fraction ([1]; 0.03162 µM): 0.0401
- increase in dead-cell fraction ([1]; 0.1 µM): 0.0754
- increase in dead-cell fraction ([1]; 0.3162 µM): 0.0958
- increase in dead-cell fraction ([1]; 1 µM): 0.171
- increase in dead-cell fraction ([1]; 3.162 µM): 0.511
- increase in dead-cell fraction ([1]; 10 µM): 0.844
- increase in dead-cell fraction ([2]; 0.0001 µM): 0.0048
- increase in dead-cell fraction ([2]; 0.0003162 µM): -0.0091
- increase in dead-cell fraction ([2]; 0.001 µM): 0.0178
- increase in dead-cell fraction ([2]; 0.003162 µM): -0.0177
- increase in dead-cell fraction ([2]; 0.01 µM): 0.0333
- increase in dead-cell fraction ([2]; 0.03162 µM): -0.0109
- increase in dead-cell fraction ([2]; 0.1 µM): 0.0094
- increase in dead-cell fraction ([2]; 0.3162 µM): 0.0312
- increase in dead-cell fraction ([2]; 1 µM): 0.288
- GR value ([3]; 0.001 µM): 0.455 GR
- GR value ([3]; 0.003162 µM): 0.364 GR
- GR value ([3]; 0.01 µM): 0.311 GR
- GR value ([3]; 0.03162 µM): 0.239 GR
- GR value ([3]; 0.1 µM): 0.242 GR
- GR value ([3]; 0.3162 µM): 0.195 GR
- GR value ([3]; 1 µM): 0.167 GR
- GR value ([3]; 3.162 µM): 0.0237 GR
- GR value ([3]; 10 µM): -0.462 GR
- GR value ([4]; 0.001 µM): 0.971 GR
- GR value ([4]; 0.003162 µM): 0.905 GR
- GR value ([4]; 0.01 µM): 0.883 GR
- GR value ([4]; 0.03162 µM): 0.844 GR
- GR value ([4]; 0.1 µM): 0.79 GR
- GR value ([4]; 0.3162 µM): 0.74 GR
- GR value ([4]; 1 µM): 0.626 GR
- GR value ([4]; 3.162 µM): 0.521 GR
- GR value ([4]; 10 µM): -0.29 GR
- GR value ([5]; 0.0003162 µM): 1.07 GR
- GR value ([5]; 0.001 µM): 0.988 GR
- GR value ([5]; 0.003162 µM): 0.928 GR
- GR value ([5]; 0.01 µM): 0.764 GR
- GR value ([5]; 0.03162 µM): 0.666 GR
- GR value ([5]; 0.1 µM): 0.569 GR
- GR value ([5]; 0.3162 µM): 0.481 GR
- GR value ([5]; 1 µM): 0.423 GR
- GR value ([5]; 3.162 µM): 0.302 GR
- GR value ([6]; 0.001 µM): 0.969 GR
- GR value ([6]; 0.003162 µM): 0.776 GR
- GR value ([6]; 0.01 µM): 0.699 GR
- GR value ([6]; 0.03162 µM): 0.521 GR
- GR value ([6]; 0.1 µM): 0.442 GR
- GR value ([6]; 0.3162 µM): 0.268 GR
- GR value ([6]; 1 µM): 0.217 GR
- GR value ([6]; 3.162 µM): -0.238 GR
- GR value ([6]; 10 µM): -0.576 GR
- GR value ([7]; 0.0003162 µM): 1.06 GR
- GR value ([7]; 0.001 µM): 1 GR
- GR value ([7]; 0.003162 µM): 1.05 GR
- GR value ([7]; 0.01 µM): 0.98 GR
- GR value ([7]; 0.03162 µM): 1 GR
- GR value ([7]; 0.1 µM): 0.888 GR
- GR value ([7]; 0.3162 µM): 0.613 GR
- GR value ([7]; 1 µM): 0.427 GR
- GR value ([7]; 3.162 µM): -0.155 GR
- GR value ([8]; 0.0001 µM): 0.955 GR
- GR value ([8]; 0.0003162 µM): 1.04 GR
- GR value ([8]; 0.001 µM): 0.986 GR
- GR value ([8]; 0.003162 µM): 1.02 GR
- GR value ([8]; 0.01 µM): 0.313 GR
- GR value ([8]; 0.03162 µM): -0.21 GR
- GR value ([8]; 0.1 µM): -0.191 GR
- GR value ([8]; 0.3162 µM): -0.216 GR
- GR value ([8]; 1 µM): -0.237 GR
- GR value ([9]; 0.001 µM): 0.825 GR
- GR value ([9]; 0.003162 µM): 0.861 GR
- GR value ([9]; 0.01 µM): 0.73 GR
- GR value ([9]; 0.03162 µM): 0.672 GR
- GR value ([9]; 0.1 µM): 0.63 GR
- GR value ([9]; 0.3162 µM): 0.621 GR
- GR value ([9]; 1 µM): 0.591 GR
- GR value ([9]; 3.162 µM): 0.513 GR
- GR value ([9]; 10 µM): 0.373 GR
- GR value ([10]; 0.0001 µM): 1.04 GR
- GR value ([10]; 0.0003162 µM): 0.978 GR
- GR value ([10]; 0.001 µM): 1 GR
- GR value ([10]; 0.003162 µM): 1.03 GR
- GR value ([10]; 0.01 µM): 0.993 GR
- GR value ([10]; 0.03162 µM): 0.798 GR
- GR value ([10]; 0.1 µM): 0.051 GR
- GR value ([10]; 0.3162 µM): -0.213 GR
- GR value ([10]; 1 µM): -0.252 GR
- GR value ([11]; 0.0001 µM): 0.977 GR
- GR value ([11]; 0.0003162 µM): 1.03 GR
- GR value ([11]; 0.001 µM): 0.99 GR
- GR value ([11]; 0.003162 µM): 1.03 GR
- GR value ([11]; 0.01 µM): 0.784 GR
- GR value ([11]; 0.03162 µM): 0.125 GR
- GR value ([11]; 0.1 µM): -0.199 GR
- GR value ([11]; 0.3162 µM): -0.251 GR
- GR value ([11]; 1 µM): -0.371 GR
- GR value ([12]; 0.0001 µM): 1 GR
- GR value ([12]; 0.0003162 µM): 1.01 GR
- GR value ([12]; 0.001 µM): 0.977 GR
- GR value ([12]; 0.003162 µM): 0.969 GR
- GR value ([12]; 0.01 µM): 0.95 GR
- GR value ([12]; 0.03162 µM): 0.923 GR
- GR value ([12]; 0.1 µM): 0.711 GR
- GR value ([12]; 0.3162 µM): 0.107 GR
- GR value ([12]; 1 µM): -0.265 GR
